The record followed here is patent US9133143B2, “(3-fluoro-2-hydroxy)propyl-functionalized aryl derivatives or pharmaceutically acceptable salts thereof, method for preparing same, and pharmaceutical composition containing same as active ingredient for the diagnosis or treatment of neurodegenerative brain diseases” (FUTURECHEM CO., LTD., priority 2009, dated 2015).

Data set [1] has as its target T1, β-Amyloid (Aβ1-42) fibrils (Homo sapiens, UniProt P05067).
T1 construct: β-Amyloid peptide (Aβ1-42, Bachem, 1 mg); purchased Bachem
In words: Test of inhibitory binding ability against [125I]TZDM on β-amyloid fibrils. Conditions: Aβ1-42 fibrils 10 nM, [125I]TZDM 0.05 nM, room temperature 3 hours; read-out: Ki, binding affinity (Ki) for [125I]TZDM (48). As to the method:
β-Amyloid peptide (Aβ1-42, Bachem, 1 mg) was completely dissolved in DMSO (1 mL) and then mixed well after adding phosphate buffer (pH 7.4, 9 mL). β-Amyloid fibrils produced by incubating at 37° C. for 60 minutes were distributed into e-tubes, 0.5 mL each, and stored in a refrigerator at −80° C.
10% ethanol (0.850 mL) was placed in a 12 mm×75 mm borosilicate test tube. […] Then, after adding [^125I]TZDM (48) (50 μL, final reaction concentration=0.05 nM), the resulting mixture was subjected to incubation at room temperature for 3 hours. 3 Hours later, after separating [^125I]TZDM (48) bound to the β-amyloid (Aβ1-42) fibrils from unbound [^125I]TZDM (48) using a cell harvester, gamma radiation was measured using a gamma counter. 2 μM ThT was used for testing of non-specific binding.

Data set [2] is described as follows: Test of in vivo distribution of F-18-labeled compounds (concentration in brain, passage through blood-brain barrier). The following applies: SD rats; for Concentration in brain of rats, Highest ([peak]) / Time of highest concentration in brain (in parentheses): F-18-labeled compound; for Initial brain inflow: at 2 minutes; for [peak]/[30 min] / [2 min]/[30 min]: ratio of brain concentrations; for [2 min]/[30 min]: value smaller than 1 = cannot pass the blood-brain barrier well. The arrangement: Concentration in brain of rats, At 2 minutes ([2 min]) / Concentration in brain of rats, At 30 minutes ([30 min]): unit not given here. As to the method:
In order to test the passing of the aryl derivative with the (3-fluoro-2-hydroxy)propyl group according to the present disclosure through the blood-brain barrier, the following experiment was carried out.
After administering the F-18-labeled aryl derivatives prepared in Examples 10 to 13 or 2-(4-(N-monomethyl)aminophenyl)-6-(3-[^18F]fluoropropoxy)benzothiophene with no hydroxyl group, as control, to SD rats, peak concentration in the brain and concentrations at 2 minutes ([2 min]) and 30 minutes ([30 min]) were measured and pharmacokinetic properties were quantitatively compared.
A larger value indicates easier passage through the blood-brain barrier.

T1 sequence (P05067 672-713 limits assumed): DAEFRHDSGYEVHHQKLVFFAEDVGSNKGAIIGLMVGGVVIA

A word on the Ki: it is the dissociation constant of the complex between target and ligand, obtained from inhibition or displacement. In the case of `CNc1ccc(-c2cc3ccc(OCC(O)CF)cc3s2)cc1` (racemic) [Example 1, 2-[4-(N-monomethyl)aminophenyl]-6-[(R/S)-3-fluoro-2-hydroxypropoxy]benzothiophene], the Ki in data set [1] was 1.2 nM.
With `CNc1ccc(-c2cc3ccc(OCC(O)CF)cc3s2)cn1` (racemic) [Example 2, 2-[2-(N-monomethyl)aminopyridin-5-yl]-6-[(R/S)-3-fluoro-2-hydroxypropoxy]benzothiophene], the inhibition constant (Ki) in data set [1] stood at 0.49 nM.
Turning to `CNc1ccc(-c2cc3ccc(OCC(O)CF)cc3s2)nn1` (racemic) [Example 5, 2-[3-(N-monomethyl)aminopyridazin-6-yl]-6-[(R/S)-3-fluoro-2-hydroxypropoxy]benzothiophene], the Ki in data set [1] stood at 0.42 nM.
Take `CNc1ccc(-c2nc3ccc(OCC(O)CF)cc3s2)cc1` (racemic) [Example 6, 2-[4-(N-monomethyl)aminophenyl]-6-[(R/S)-3-fluoro-2-hydroxypropoxy]benzothiazole]: in data set [1], the Ki was 1.06 nM.
`CNc1ccc(-c2cc3ccc(OCC(O)C[18F])cc3s2)cn1` (racemic) [Example 10, 2-[2-(N-monomethyl)aminopyridin-5-yl]-6-[(R/S)-3-[^18F]fluoro-2-hydroxypropoxy]benzothiophene]: in data set [2], the “[2 min]/[30 min] value relative to that of the compound with no hydroxyl group at the propyl residue” value is given as 8.1 times; the “Concentration in brain of rats, At 2 minutes ([2 min])” value (shortened to “Concentration in brain … ([2 min])”) is 16.5; the “Concentration in brain of rats, At 30 minutes ([30 min])” value (“Concentration in brain … ([30 min])” below) was 2.2; the “Concentration in brain of rats, Highest ([peak])” value was 22.4. In data set [2], the “Time of highest concentration in brain (in parentheses)” value worked out at 30 s, the Initial brain inflow entry is “very rapid”, the “[peak]/[30 min]” value is given as 10.3 and the “[2 min]/[30 min]” value turned out to be 7.5.
Consider `CNc1cccc(-c2nc3ccc(OCC(O)C[18F])cc3s2)c1` (racemic) [Example 12, 2-[3-(N-monomethyl)aminophenyl]-6-[(R/S)-3-[^18F]fluoro-2-hydroxypropoxy]benzothiazole], for which, in data set [2], the “Concentration in brain … ([2 min])” value was 15.7; the “Concentration in brain … ([30 min])” value came to 2.9; the “Concentration in brain of rats, Highest ([peak])” value is 22.6; the “Time of highest concentration in brain (in parentheses)” value is 25 s. Moreover, the “[peak]/[30 min]” value in data set [2] came out at 7.7.
On the same counts, the results for `CNc1ccc(-c2nc3ccc(OCC(O)C[18F])cc3s2)cn1` (racemic) [Example 13, 2-[2-(N-monomethyl)aminopyridin-5-yl]-6-[(R/S)-3-[^18F]fluoro-2-hydroxypropoxy]benzothiazole] are 6.5, 1.0, 11.1, 45 s and 10.8.
With `CNc1ccc(-c2cc3ccc(OCCC[18F])cc3s2)cc1` [Control, 2-(4-(N-monomethyl)aminophenyl)-6-(3-[^18F]fluoropropoxy)benzothiophene, reference compound], in data set [2], the “Concentration in brain … ([2 min])” value was 2.02; the “Concentration in brain … ([30 min])” value was 2.18; the Initial brain inflow result is “very low”; the “[2 min]/[30 min]” value amounted to 0.93. For the same compound, the “[2 min]/[30 min]” value in data set [2] (listed as 2-[4-(N-monomethyl)aminophenyl]-6-β-[^18F]fluoropropoxy)benzothiophene) is listed as “less than or equal to 1”.
Consider `CNc1ccc(-c2nc3ccc(OC[C@H](O)CF)cc3s2)cn1` [Example 8, 2-[2-(N-monomethyl)aminopyridin-5-yl]-6-[(S)-3-fluoro-2-hydroxypropoxy]benzothiazole], for which the Ki in data set [1] was found to be 0.16 nM.
